In patent US8952024B2, “Herbicidal pyrimidone derivatives” (E I du Pont de Nemours and Company, priority 2009, dated 2015):
Like-named read-outs stand apart in the source and are kept apart here.

Legend:
Test in all cases: Test B pre-/postemergence plant response
Assay type in all cases: in vivo
[1] = system: woolly cupgrass (Eriochloa villosa)
How it was run: (§1)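 Pre-em in loam/sand; post-em at 1–4 leaf (2–18 cm) in peat mix. Solvent + surfactant formulation. Greenhouse 13–15 d; visual % control vs untreated, 0–100.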

[2] = system: giant foxtail (Setaria faberii); details: for pest or weed control at 31 g/ha: 31 g ai/ha; for pest or weed control at 62 g/ha: 62 g ai/ha; for pest or weed control at 125 g/ha: 125 g ai/ha
How it was run: as §1

[3] = system: downy bromegrass (Bromus tectorum); details: for pest or weed control at 31 g/ha: 31 g ai/ha; for pest or weed control at 62 g/ha: 62 g ai/ha; for pest or weed control at 125 g/ha: 125 g ai/ha
How it was run: as §1

[4] = system: morningglory (Ipomoea coccinea); details: for pest or weed control at 125 g/ha: 125 g ai/ha
How it was run: as §1

[5] = system: Surinam grass (Brachiaria decumbens); details: for pest or weed control at 31 g/ha: 31 g ai/ha; for pest or weed control at 62 g/ha: 62 g ai/ha; for pest or weed control at 125 g/ha: 125 g ai/ha
How it was run: as §1

[6] = system: yellow nutsedge (Cyperus esculentus); details: for pest or weed control at 31 g/ha: 31 g ai/ha; for pest or weed control at 62 g/ha: 62 g ai/ha; for pest or weed control at 125 g/ha: 125 g ai/ha
How it was run: as §1

[7] = system: bermudagrass (Cynodon dactylon); details: for pest or weed control at 31 g/ha: 31 g ai/ha; for pest or weed control at 62 g/ha: 62 g ai/ha; for pest or weed control at 125 g/ha: 125 g ai/ha
How it was run: as §1

[8] = Preemergence, 250 g ai/ha, 0 to 100 scale
[9] = Setaria faberi, pre-emergence, Preemergence, scale 0 to 100 (0 no effect, 100 complete control), read-out: Plant response rating, Foxtail, Giant
[10] = Bromus tectorum, pre-emergence, Preemergence, scale 0 to 100 (0 no effect, 100 complete control), read-out: Plant response rating, Bromegrass, Downy
[11] = Urochloa decumbens, pre-emergence, Preemergence, scale 0 to 100 (0 no effect, 100 complete control), read-out: Plant response rating, Surinam Grass
[12] = Cyperus, pre-emergence, Preemergence, scale 0 to 100 (0 no effect, 100 complete control), read-out: Plant response rating, Nutsedge, Yellow
[13] = Cynodon dactylon, pre-emergence, Preemergence, scale 0 to 100 (0 no effect, 100 complete control), read-out: Plant response rating, Bermudagrass

COCCn1c(-c2cc(F)cc(F)c2)ncc(C(=O)C2=C(O)C3CCC(C3)C2=O)c1=O (stereo not drawn) [Compound 243, 2-(3,5-difluorophenyl)-5-[(2-hydroxy-4-oxobicyclo[3.2.1]oct-2-en-3-yl)carbonyl]-3-(2-methoxyethyl)-4(3H)-pyrimidinone]
pest or weed control at 250 g/ha ([1]; Eriochloa villosa, post-emergence, Postemergence, 250 g ai/ha, scale 0 to 100 (0 no effect, 100 complete control), 13 to 15 days, read-out: Plant response rating, Cupgrass, Woolly): 100%
pest or weed control at 31 g/ha ([1]; Eriochloa villosa, pre-emergence, Preemergence, 31 g ai/ha, scale 0 to 100 (0 no effect, 100 complete control), read-out: Plant response rating, Cupgrass, Woolly): 75%
pest or weed control at 62 g/ha ([1]; Eriochloa villosa, pre-emergence, Preemergence, 62 g ai/ha, scale 0 to 100 (0 no effect, 100 complete control), read-out: Plant response rating, Cupgrass, Woolly): 95%
pest or weed control at 125 g/ha ([1]; Eriochloa villosa, pre-emergence, Preemergence, 125 g ai/ha, scale 0 to 100, 0 no effect, 100 complete control, read-out: Plant response rating, Cupgrass, Woolly): 95%
Cupgrass, Woolly plant response rating [1, 8]: 100
Foxtail, Giant plant response rating [2, 8]: 95
pest or weed control at 31 g/ha ([2]; Setaria faberi, post-emergence, Postemergence, 0 to 100 scale (0 no effect, 100 complete control), read-out: Plant response rating, Foxtail, Giant): 95%
pest or weed control at 62 g/ha ([2]; Setaria faberi, post-emergence, Postemergence, scale 0 to 100 (0 no effect, 100 complete control), read-out: Plant response rating, Foxtail, Giant): 95%
pest or weed control at 125 g/ha ([2]; Setaria faberi, post-emergence, Postemergence, scale 0 (no effect) to 100 (complete control), 13 to 15 days, read-out: Plant response rating, Foxtail, Giant): 98%
pest or weed control at 250 g/ha ([2]; Setaria faberi, post-emergence, Postemergence, 250 g ai/ha, scale 0 to 100 (0 no effect, 100 complete control), 13 to 15 days, read-out: Plant response rating, Foxtail, Giant): 98%
pest or weed control at 31 g/ha [2, 9]: 55%
pest or weed control at 62 g/ha [2, 9]: 85%
pest or weed control at 125 g/ha ([2]; Setaria faberi, pre-emergence, Preemergence, scale 0 to 100, 0 no effect, 100 complete control, read-out: Plant response rating, Foxtail, Giant): 95%
pest or weed control at 31 g/ha ([3]; Bromus tectorum, post-emergence, Postemergence, 0 to 100 scale (0 no effect, 100 complete control), read-out: Plant response rating, Bromegrass, Downy): 50%
pest or weed control at 62 g/ha ([3]; Bromus tectorum, post-emergence, Postemergence, scale 0 to 100 (0 no effect, 100 complete control), read-out: Plant response rating, Bromegrass, Downy): 70%
pest or weed control at 125 g/ha ([3]; Bromus tectorum, post-emergence, Postemergence, scale 0 (no effect) to 100 (complete control), 13 to 15 days, read-out: Plant response rating, Bromegrass, Downy): 95%
pest or weed control at 250 g/ha ([3]; Bromus tectorum, post-emergence, Postemergence, 250 g ai/ha, scale 0 to 100 (0 no effect, 100 complete control), 13 to 15 days, read-out: Plant response rating, Bromegrass, Downy): 100%
pest or weed control at 31 g/ha [3, 10]: 0%
pest or weed control at 62 g/ha [3, 10]: 40%
pest or weed control at 125 g/ha ([3]; Bromus tectorum, pre-emergence, Preemergence, scale 0 to 100, 0 no effect, 100 complete control, read-out: Plant response rating, Bromegrass, Downy): 60%
Bromegrass, Downy plant response rating [3, 8]: 70
pest or weed control at 31 g/ha ([4]; Ipomoea, post-emergence, Postemergence, 31 g ai/ha, 0 to 100 scale (0 no effect, 100 complete control), read-out: Plant response rating, Morningglory): 95%
pest or weed control at 62 g/ha ([4]; Ipomoea, post-emergence, Postemergence, 62 g ai/ha, scale 0 to 100 (0 no effect, 100 complete control), read-out: Plant response rating, Morningglory): 100%
pest or weed control at 125 g/ha ([4]; Ipomoea, post-emergence, Postemergence, scale 0 (no effect) to 100 (complete control), 13 to 15 days, read-out: Plant response rating, Morningglory): 100%
pest or weed control at 250 g/ha ([4]; Ipomoea, post-emergence, Postemergence, 250 g ai/ha, scale 0 to 100 (0 no effect, 100 complete control), 13 to 15 days, read-out: Plant response rating, Morningglory): 100%
pest or weed control at 125 g/ha ([4]; Ipomoea, pre-emergence, Preemergence, scale 0 to 100, 0 no effect, 100 complete control, read-out: Plant response rating, Morningglory): 98%
Morningglory plant response rating [4, 8]: 100
Surinam Grass plant response rating [5, 8]: 100
pest or weed control at 31 g/ha ([5]; Urochloa decumbens, post-emergence, Postemergence, 0 to 100 scale (0 no effect, 100 complete control), read-out: Plant response rating, Surinam Grass): 90%
pest or weed control at 62 g/ha ([5]; Urochloa decumbens, post-emergence, Postemergence, scale 0 to 100 (0 no effect, 100 complete control), read-out: Plant response rating, Surinam Grass): 95%
pest or weed control at 125 g/ha ([5]; Urochloa decumbens, post-emergence, Postemergence, scale 0 (no effect) to 100 (complete control), 13 to 15 days, read-out: Plant response rating, Surinam Grass): 100%
pest or weed control at 250 g/ha ([5]; Urochloa decumbens, post-emergence, Postemergence, 250 g ai/ha, scale 0 to 100 (0 no effect, 100 complete control), 13 to 15 days, read-out: Plant response rating, Surinam Grass): 100%
pest or weed control at 31 g/ha [5, 11]: 80%
pest or weed control at 62 g/ha [5, 11]: 98%
pest or weed control at 125 g/ha ([5]; Urochloa decumbens, pre-emergence, Preemergence, scale 0 to 100, 0 no effect, 100 complete control, read-out: Plant response rating, Surinam Grass): 100%
pest or weed control at 31 g/ha ([6]; Cyperus, post-emergence, Postemergence, 0 to 100 scale (0 no effect, 100 complete control), read-out: Plant response rating, Nutsedge, Yellow): 65%
pest or weed control at 62 g/ha ([6]; Cyperus, post-emergence, Postemergence, scale 0 to 100 (0 no effect, 100 complete control), read-out: Plant response rating, Nutsedge, Yellow): 65%
pest or weed control at 125 g/ha ([6]; Cyperus, post-emergence, Postemergence, scale 0 (no effect) to 100 (complete control), 13 to 15 days, read-out: Plant response rating, Nutsedge, Yellow): 70%
pest or weed control at 250 g/ha ([6]; Cyperus, post-emergence, Postemergence, 250 g ai/ha, scale 0 to 100 (0 no effect, 100 complete control), 13 to 15 days, read-out: Plant response rating, Nutsedge, Yellow): 85%
pest or weed control at 31 g/ha [6, 12]: 65%
pest or weed control at 62 g/ha [6, 12]: 80%
pest or weed control at 125 g/ha ([6]; Cyperus, pre-emergence, Preemergence, scale 0 to 100, 0 no effect, 100 complete control, read-out: Plant response rating, Nutsedge, Yellow): 90%
Nutsedge, Yellow plant response rating [6, 8]: 95
pest or weed control at 31 g/ha ([7]; Cynodon dactylon, post-emergence, Postemergence, 0 to 100 scale (0 no effect, 100 complete control), read-out: Plant response rating, Bermudagrass): 98%
pest or weed control at 62 g/ha ([7]; Cynodon dactylon, post-emergence, Postemergence, scale 0 to 100 (0 no effect, 100 complete control), read-out: Plant response rating, Bermudagrass): 98%
pest or weed control at 125 g/ha ([7]; Cynodon dactylon, post-emergence, Postemergence, scale 0 (no effect) to 100 (complete control), 13 to 15 days, read-out: Plant response rating, Bermudagrass): 100%
pest or weed control at 250 g/ha ([7]; Cynodon dactylon, post-emergence, Postemergence, 250 g ai/ha, scale 0 to 100 (0 no effect, 100 complete control), 13 to 15 days, read-out: Plant response rating, Bermudagrass): 100%
pest or weed control at 31 g/ha [7, 13]: 100%
pest or weed control at 62 g/ha [7, 13]: 100%
pest or weed control at 125 g/ha ([7]; Cynodon dactylon, pre-emergence, Preemergence, scale 0 to 100, 0 no effect, 100 complete control, read-out: Plant response rating, Bermudagrass): 100%
Bermudagrass plant response rating ([7]; Preemergence, 250 g ai/ha, 0 to 100 scale, 0 no effect, 100 complete control): 100
